From ChEMBL document CHEMBL4477229, “Design and Characterization of Superpotent Bivalent Ligands Targeting Oxytocin Receptor Dimers via a Channel-Like Structure” (J Med Chem, 2016)
Numbering of substitutions follows the chain as printed. Activity calls are given as the source filed them. The calls are words filed in the database; no cut-off is given here. Numbered stars: 1 amine (or outer) side, 2 acyl side, 3 side chain; on linkers, the order of the positions; unused ones are H or OH. Bridge positions count the residues as written; N and C are the ends. Square brackets hold non-standard residues; d marks the D form. Peptide text beside a SMILES is read from it. I, II: the chains in the order shown. Suberoyl = O=C(CCCCCCC(=O)[*:2])[*:1]; Mpa = O=C(O)CCS

Assays:
Oxytocin receptor [1] = target: T1, Oxytocin receptor (Homo sapiens, UniProt P30559); assay: Agonist activity at human oxytocin receptor high affinity site expressed in HEK293 cells coexpressing Rluc8-tagged Galphaq, N-terminal GFP-tagged Ggamma2 and Gbeta1 protein incubated for 2 mins by Gq protein activation based BRET assay; assay type: cell-based
T1 sequence (P30559 whole entry): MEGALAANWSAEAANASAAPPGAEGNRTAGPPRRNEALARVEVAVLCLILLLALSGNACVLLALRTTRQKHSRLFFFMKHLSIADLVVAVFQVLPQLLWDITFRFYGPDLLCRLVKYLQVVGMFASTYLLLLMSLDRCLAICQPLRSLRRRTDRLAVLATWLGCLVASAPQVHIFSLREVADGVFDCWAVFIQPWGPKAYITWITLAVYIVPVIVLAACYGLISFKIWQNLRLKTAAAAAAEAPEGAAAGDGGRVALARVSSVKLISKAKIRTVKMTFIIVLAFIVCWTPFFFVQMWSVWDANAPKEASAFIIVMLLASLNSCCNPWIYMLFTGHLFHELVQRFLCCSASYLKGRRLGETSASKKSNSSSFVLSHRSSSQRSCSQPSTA

Oxytocin receptor [2] = target: T1, Oxytocin receptor; assay: Agonist activity at human oxytocin receptor high affinity site expressed in HEK293 cells coexpressing Rluc8-tagged Galphaq, N-terminal GFP-tagged Ggamma2 and Gbeta1 protein incubated for 2 mins in presence of TMH5-TAT peptide by Gq protein activation based BRET assay; assay type: cell-based
Oxytocin receptor [3] = target: T1, Oxytocin receptor; assay: Agonist activity at human oxytocin receptor low affinity site expressed in HEK293 cells coexpressing Rluc8-tagged Galphaq, N-terminal GFP-tagged Ggamma2 and Gbeta1 protein incubated for 2 mins by Gq protein activation based BRET assay; assay type: cell-based
[4] = target: T2, Oxytocin receptor (Homo sapiens) (UniProt P30559); assay: Ratio of EC50 for human oxytocin receptor high affinity site expressed in HEK293 cells coexpressing Rluc8-tagged Galphaq, N-terminal GFP-tagged Ggamma2 and Gbeta1 protein to Ki for human oxytocin receptor high affinity site expressed in COS7 cell membrane; assay type: cell-based
T2 sequence (whole entry): T1 sequence (P30559 whole entry)

[5] = target: T2, Oxytocin receptor (Homo sapiens); assay: Displacement of [125I]-OVTA from human oxytocin receptor expressed in COS7 cell membrane; assay type: cell membranes
Danio rerio [6] = assay: Effect on social behavior in zebra fish assessed as increase in time spent swimming parallel to nacre mutant fish over time spent shoaling close to wild type fish at 0.2 ng/kg, im; assay type: functional, organism-based
[7] = target: T2, Oxytocin receptor (Homo sapiens); assay: Ratio of EC50 for human oxytocin receptor low affinity site expressed in HEK293 cells coexpressing Rluc8-tagged Galphaq, N-terminal GFP-tagged Ggamma2 and Gbeta1 protein to Ki for human oxytocin receptor low affinity site expressed in COS7 cell membrane; assay type: cell-based
[8] = target: T2, Oxytocin receptor (Homo sapiens); assay: Agonist activity at human oxytocin receptor expressed in HEK293 cells coexpressing Rluc8-tagged Galphaq, N-terminal GFP-tagged Ggamma2 and Gbeta1 protein incubated for 2 mins in presence of TMH5-TAT peptide by Gq protein activation based BRET assay; assay type: cell-based; design: unit not given here
Mus musculus [9] = species on record: Mus musculus; assay: Potency index, ratio of oxytocin dose to compound dose for OXTR+/- DBA/2J mouse assessed as increase in time spent exploring stranger mouse over time spent exploring empty cage; assay type: functional
Mus musculus [10] = assay: Effect on social behavior in OXTR+/- DBA/2J mouse assessed as increase in time spent exploring stranger mouse over time spent exploring empty cage at 0.005 ng/mouse, icv measured for 10 mins by three chamber method; assay type: functional, organism-based
Danio rerio [11] = species on record: Danio rerio; assay: Potency index, ratio of isotocin dose to compound dose for effect on shoaling behavior in zebra fish; assay type: functional
Oxytocin receptor [12] = target: Oxytocin receptor (Homo sapiens, UniProt P30559, C47A/V43A); assay: (§1) Agonist activity at human oxytocin receptor V43A/C47A double mutant expressed in HEK293 cells coexpressing Rluc8-tagged Galphaq, N-terminal GFP-tagged Ggamma2 and Gbeta1 protein incubated for 2 mins by Gq protein activation based BRET assay; assay type: cell-based
Oxytocin receptor (Homo sapiens, UniProt P30559, C47A/V43A), sequence (P30559 whole entry V43A/C47A): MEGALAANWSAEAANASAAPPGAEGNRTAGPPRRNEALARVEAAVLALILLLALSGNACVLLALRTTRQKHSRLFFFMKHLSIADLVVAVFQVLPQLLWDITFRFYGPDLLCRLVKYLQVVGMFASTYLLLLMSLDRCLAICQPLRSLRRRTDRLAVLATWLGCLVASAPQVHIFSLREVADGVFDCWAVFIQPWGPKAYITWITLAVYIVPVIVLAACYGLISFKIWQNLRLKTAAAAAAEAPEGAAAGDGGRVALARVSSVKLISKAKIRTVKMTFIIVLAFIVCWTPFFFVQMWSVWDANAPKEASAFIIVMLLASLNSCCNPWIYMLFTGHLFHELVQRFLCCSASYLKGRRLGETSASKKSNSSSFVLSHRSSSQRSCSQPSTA

[13] = system: T3, Oxytocin receptor (Homo sapiens), P30559 [V43A,C47A]; assay: as §1; assay type: cell-based; design: unit not given here
T3 sequence (whole entry): T1 sequence (P30559 whole entry) with V43A, C47A

[14] = system: T4, Oxytocin receptor (Homo sapiens), P30559 [C47A]; assay: (§2) Agonist activity at human oxytocin receptor C47A mutant expressed in HEK293 cells coexpressing Rluc8-tagged Galphaq, N-terminal GFP-tagged Ggamma2 and Gbeta1 protein incubated for 2 mins by Gq protein activation based BRET assay; assay type: cell-based; design: unit not given here
T4 sequence (whole entry): T1 sequence (P30559 whole entry) with C47A

Oxytocin receptor [15] = target: Oxytocin receptor (Homo sapiens, UniProt P30559, C47A); assay: as §2; assay type: cell-based
Oxytocin receptor (Homo sapiens, UniProt P30559, C47A), sequence (P30559 whole entry C47A): as the sequence (P30559 whole entry V43A/C47A) above, with A43V counted along it

Oxytocin receptor [16] = target: T1, Oxytocin receptor; assay: (§3) Agonist activity at human oxytocin receptor expressed in HEK293 cells coexpressing Rluc8-tagged Galphaq, N-terminal GFP-tagged Ggamma2 and Gbeta1 protein incubated for 2 mins in presence of TMH1-TAT peptide by Gq protein activation based BRET assay; assay type: cell-based
[17] = target: T2, Oxytocin receptor (Homo sapiens); assay: as §3; assay type: cell-based; design: unit not given here
[18] = target: T2, Oxytocin receptor (Homo sapiens); assay: Agonist activity at human oxytocin receptor expressed in HEK293 cells coexpressing Rluc8-tagged Galphaq, N-terminal GFP-tagged Ggamma2 and Gbeta1 protein incubated for 2 mins by Gq protein activation based BRET assay; assay type: cell-based; design: unit not given here
Oxytocin receptor [19] = target: T1, Oxytocin receptor; assay: Agonist activity at human oxytocin receptor low affinity site expressed in HEK293 cells coexpressing Rluc8-tagged Galphaq, N-terminal GFP-tagged Ggamma2 and Gbeta1 protein incubated for 2 mins in presence of TMH5-TAT peptide by Gq protein activation based BRET assay; assay type: cell-based

EC50 (Oxytocin receptor [1]): 0.8 pM | EC50 (Oxytocin receptor [2]): 0.0118 nM | EC50 (Oxytocin receptor [3]): 67.3 nM | Ratio [4]: 10 | KiH [5]: 0.08 pM | KiL [5]: 1.24 nM | Ratio [7]: 10 | Emax [8]: -0.15 | EC50 (Oxytocin receptor [12]): 117 nM | Emax [13]: -0.1 | Emax [14]: -0.14 | EC50 (Oxytocin receptor [15]): 40.5 nM | EC50 (Oxytocin receptor [16]): 19.3 nM | Emax [17]: -0.16 | Emax [18]: -0.11 | EC50 (Oxytocin receptor [19]): 33.4 nM
Structure (SMILES): CC[C@H](C)[C@@H]1NC(=O)[C@H](Cc2ccc(O)cc2)NC(=O)CCSSC[C@@H](C(=O)N2CCC[C@H]2C(=O)N[C@@H](CCCCNC(=O)CCCCCCC(=O)NCCCC[C@H](NC(=O)[C@@H]2CCCN2C(=O)[C@@H]2CSSCCC(=O)N[C@@H](Cc3ccc(O)cc3)C(=O)N[C@@H]([C@@H](C)CC)C(=O)N[C@@H](CCC(N)=O)C(=O)N[C@@H](CC(N)=O)C(=O)N2)C(=O)NCC(N)=O)C(=O)NCC(N)=O)NC(=O)[C@H](CC(N)=O)NC(=O)[C@H](CCC(N)=O)NC1=O (I: [Mpa]YIQNCPKG-NH2 / II: [Mpa]YIQNCPKG-NH2; disulfide I:1-I:6, II:1-II:6; linker I:8-II:8 via Suberoyl)
Activity (Danio rerio [6]): Active | Ratio (Mus musculus [9]): 100 | Activity (Mus musculus [10]): Active | Ratio (Danio rerio [11]): 40
